Here are results for 10 compounds from patent publication US8962263B2, “Methods and compositions for detecting the activation state of multiple proteins in single cells” (The Board of Trustees of the Leland Stanford Junior …, priority 2001, dated 2015).

One test relates to p44/42 MAPK. Briefly: intracellular phospho-p44/42 MAPK by flow cytometry in ICAM-2 treated Jurkat cells. The class given is cell-based, human. The note with it: chemical agents 10 μM, EDTA 1 mM; mAbs titrated prior to ICAM-2. The source says:
A) Mean fluorescent intensity values (MFI) of ICAM-2-FITC (adhesion) and mAb24-Alexa633, (LFA-1, activation) in treated Jurkat cells (as above). Control unstimulated and/or compound pretreated values were subtracted. B) Top panel: Intracellular phospho-p44/42, MAPK detection as a function of ICAM-2, dose in Jurkat cells by flow cytometry (see Material and Methods). Mean fluorescent intensity values (MFI) were plotted±standard deviation (SD). Bottom panel: ICAM-2, treated Jurkat cells were stained for intracellular phospho-p44/42, MAPK as described above. mAbs to β2, and αL, integrins (10, μg/ml, 10, minutes) were titrated prior to ICAM-2, treatment as indicated and plotted for MFI±SD. C) ICAM-2, induced p44/42, MAPK activity is blocked by β2, and αL, integrin antibodies as determined by a p44/42 MAPK kinase assay. Conditions for induction and inhibition are as described above. Recombinant active p44/42, MAPK served as an internal positive control (denoted by “+”). D) Inhibition and activation profile for intracellular phospho-p44/42, by flow cytometry in the presences of chemical agents (10, μM), EDTA (1, mM), or PMA, ionomycin and ICAM-2, stimulus (as indicated above). MFI values±SD are plotted.
(§1) Intracellular and extracellular staining was performed as described (Perez and Nolan, 2002). Intracellular probes for active kinases were made by conjugating phospho-specific antibodies to the ALEXA FLUOR® dye series as described and used in phospho-protein optimized conditions (Perez and Nolan, 2002). Kinetic analyses was performed by direct application of fixation buffer in time synchronized 96-wells maintained at 37° C. Intracellular actin and microtubule staining was performed using phalloidin-Alexa633 and taxol-Alexa546 dyes (Molecular Probes). Adhesion and clustering assays were performed using ICAM-2-FITC as described in text. LFA-1 activation was assessed by either mAb24-Alexa633 or mAb24-Alexa546 conjugate, surface stained at 37° C. Flow cytometry data are representative of 3 independent experiments of 10^6 cells/sample. 10-50,000 events were collected and manually calibrated on a FACSCalibur™ machine. Data plotted in bar graph format is expressed as geometric mean fluorescence intensity (MFI) and normalized for isotype controls. Log ratios are defined as the MFI of stimulus to the MFI of unstimulated cells. Data was analyzed using Flowjo™ software (Treestar).
In general terms: Flow cytometry measures light scatter and fluorescence of single cells or particles in a stream.

The subject of the next test is NIH3T3. Briefly: staurosporine induced apoptosis in ICAM-2 transduced NIH3T3 (annexin-V binding, BrdU TUNEL). The class given is cell-based, murine. As to conditions: for effect on ICAM-2 anti-apoptotic effect, other kinase inhibitors: cell type not stated, data not shown. The protocol:
A) Pharmacological inhibitors of PI3K abrogate ICAM-2's anti-apoptotic. ICAM-2, or vector transduced BaF3, cells were treated with staurosporine (1, μM) with (unfilled) or without (filled) the addition of 100, nM wortmannin for 24, hours (left bar graph). Apoptosis was determined by nuclear staining and fluorescence microscopy (left bar graph) and by annexin-V binding assay (right bar graph). The proportion of apoptotic cells in each culture without staurosporine was 8%+/−2. The percentage of apoptotic cells is expressed as the mean (bar)+SD of triplicate cultures. ICAM-2, 1CAM2-AC, or vector transduced NIH3T3, were treated with staurosporine ([…]) in the presence or absence of 10, μM LY294002, for 24, hours (right bar graph). DMSO vehicle served as negative control. The percentage of apoptotic cells is expressed as the mean (bar)+/−SD of triplicate cultures. B) Confocal images of PI3K and AKT localization in ICAM-2, (top) or vector control cells (bottom). C) Confocal images of ezrin and the p85, subunit of PI3K (green) localization in ICAM-2, (top) or vector control cells (bottom).
A) The anti-apoptotic effect of ICAM-2, is both wortmannin and LY294002, sensitive. ICAM-2, or vector transduced BaF3, cells were treated with staurosporine (1, μM) with (unfilled) or without (filled) the addition of 100, nM wortmannin for 24 hours. Apoptosis was determined by nuclear staining and fluorescence microscopy (left bar graph) and by annexin-V binding assay (right bar graph). The proportion of apoptotic cells in each culture without staurosporine was 8%±2. The percentage of apoptotic cells is expressed as the mean (bar)±SD of triplicate cultures. ICAM-2, ICAM2-ΔC, or vector transduced NIH3T3, were treated with staurosporine (1, μM) in the presence or absence of 10, μM LY294002, for 24, hours. DMSO vehicle served as negative control. The percentage of apoptotic cells is expressed as the mean (bar)±SD of triplicate cultures. B) ICAM-2, expressing NIH3T3, cells are sensitive to apoptosis in the presence of PI3K inhibitor LY294002. BrdU TUNEL assay was performed in staurosporine (1, μM) or LY294002, (10, μM) treated ICAM-2, ICAM2-ΔC, and control vector transduced NIH3T3, cells. The percentage of apoptotic cells is expressed as the mean (bar)±SD of triplicate cultures.
Apoptosis was determined either by counting pyknotic nuclei, annexin-V binding by flow cytometry, or TUNEL BrdU staining by flow cytometry as indicated. Apoptosis was induced either by staurosporine (1 μm), treatment with anti-mouse Fas (5 μq/ml Santa Cruz Biotechnology (SCB), […] Fas (5 μg/ml Jo2 Biomed) or anti-human Fas (10 ng/ml CH11 Kamiya Biomedical) as indicated in appropriate experiment, IL-3 withdrawal-(24 hrs) or as indicated. For pyknolic nuclei count, NIH3T3 cells were grown on glass coverslips and assayed for apoptosis. Suspension cells were analyzed by nuclear staining with 25 μM acridine orange/25 μm ethidium bromide or 5 μg/ml Hoechst 33342 (Molecular Probes, Eugene, Oreg.). Apoptosis was identified by the presence of characteristic pyknotic nuclei as described (Jacobson and Raff, 1995). At least 5 individual fields were photographed and counted using a Zeiss axioscope fluorescence microscope. For the survival assay 10^6 NIH3T3 cells were plated in 10 cm dishes and incubated overnight at 37° C. The cells were treated with 1 μM staurosporine for 24 hours. The cells were washed and cultured for 24 hours in complete medium. The cells were trypsinized and viable cells counted following trypan blue staining. Untreated cells were counted at the time of treatment. % survival represents (number of viable cells post-treatment)/(number of viable cells pretreatment). FACS based annexin-V-FITC/PI staining was done as described (PharMingen). TUNEL assay was performed as described by manufacturer of Apoptosis BrdU kit (Promega). […]

Test [1] relates to LFA-1. Briefly: LFA-1 activation by mAb24-Alexa633 staining, flow cytometry. The note with it: Jurkat cells; agents 10 μM 30 min, PMA 1 μg/ml, prior to ICAM-2 10 μg/ml 30 min. The class given is cell-based, human. The protocol:
A) Confocal microscopy of actin and microtubule architecture upon ICAM-2, stimulus (10, μg/ml, 30, min) in Jurkat cells. Actin was stained by phalloidin-alexa633, and tubulin by taxol-alexa546. Inserts display enlarged cell image of representative treatment B) Flow cytometric staining for actin and microtubules as described above. C) Left: Fluorescence topography analysis of ICAM-2-FITC (1 μg/ml, time as indicated) surface distribution. Intensity color gradient depicts high and low fluorescent intensity values. Right: Confocal microscopy of ICAM-2-FITC surface binding (10 μg/ml, 30, min) and anti-β2-alexa568, (clone CTB104). D) Staining for ICAM-2-FITC surface binding (fluorescence intensity) and surface distribution (fluorescence pulse) in cytochalisin D treated Jurkat cells at 37° C. and 4° C. by flow cytometry. E) Values for ICAM-2-FITC fluorescence intensity per time-of-flight per cell as described in text. F) Flow cytometric staining for LFA-1 activation by mAb24-alexa633. Stimuli as indicated (10, μM, 30, min), PMA (1, μg/ml) prior to ICAM-2, stimulation (10, μg/ml, 30, min). Staining was performed at 37° C. G) Mean fluorescence intensity (MFI) values of mAb24-633, and ICAM-2, cluster values, computed as described above, as a function of time.
as §1

Another test deals with Pyk2. In words: sICAM-2 induced Pyk2 phosphorylation (phospho-tyrosine based ELISA, chemical genetic approach). The class given is cell-based. As to conditions: phospho-tyrosine based ELISA. The source says:
E) depicts that LFA-1, induced phosphorylation of Pyk2, and Syk is dependent on PKC. We screened for the inhibition of sICAM-2, induced Pyk2, and Syk phosphorylation by chemical inhibitors to tyrosine kinases using a phospho-tyrosine based ELISA. Pyk2, phosphorylation was abrogated in the presence of PKC inhibitors bisindolymaleimide II (BIM II) and staurosporine (STP), in addition to tyrphostin A9, a specific Pyk2, inhibitor. a Pyk2, phosphorylation was also affected by inhibitors of phospholipase Cg (neomycin), inhibitors of Syk (piceatannol), and PKC inhibitor BIM I. Syk phosphorylation was completely abolished by inhibition of Pyk2, PLCg1, and strongly affected by PKC inhibitors. Thus, both Pyk2, and Syk phosphorylations were dependent on PKC activity, while Syk phosphorylation was additionally dependent on PLCg1, and Pyk2, activity. It was not possible to assess specific PKC isozymes by this method.
A chemical genetic approach was undertaken to determine the hierarchy of PKC, Pyk2, PLCg1, and Syk activities in response to sICAM-2, stimulus by verifying phosphorylation status of each kinase in the presence of respective chemical inhibitors. Inhibition of PKC with BIM II abrogated phosphorylation of Pyk2, PLCg1, and Syk. Inhibition of PLCg1, by neomycin abrogated phosphorylation of Syk, with no inhibition observed for Pyk2. […] Thus, the upstream signaling events from LFA-1, to Raf-1, appear to involve PKC/Pyk2/PLCg1/Syk. […] We are currently pursuing these complexes in a separate study.
A general note: In an ELISA, binding on a coated surface is turned into a signal by an enzyme label.

Test [2] addresses LFA-1 (Homo sapiens, UniProt P20701). The note with it: cited from earlier work.

Chain of LFA-1 (Homo sapiens, UniProt P20701) (P20701 26-1170): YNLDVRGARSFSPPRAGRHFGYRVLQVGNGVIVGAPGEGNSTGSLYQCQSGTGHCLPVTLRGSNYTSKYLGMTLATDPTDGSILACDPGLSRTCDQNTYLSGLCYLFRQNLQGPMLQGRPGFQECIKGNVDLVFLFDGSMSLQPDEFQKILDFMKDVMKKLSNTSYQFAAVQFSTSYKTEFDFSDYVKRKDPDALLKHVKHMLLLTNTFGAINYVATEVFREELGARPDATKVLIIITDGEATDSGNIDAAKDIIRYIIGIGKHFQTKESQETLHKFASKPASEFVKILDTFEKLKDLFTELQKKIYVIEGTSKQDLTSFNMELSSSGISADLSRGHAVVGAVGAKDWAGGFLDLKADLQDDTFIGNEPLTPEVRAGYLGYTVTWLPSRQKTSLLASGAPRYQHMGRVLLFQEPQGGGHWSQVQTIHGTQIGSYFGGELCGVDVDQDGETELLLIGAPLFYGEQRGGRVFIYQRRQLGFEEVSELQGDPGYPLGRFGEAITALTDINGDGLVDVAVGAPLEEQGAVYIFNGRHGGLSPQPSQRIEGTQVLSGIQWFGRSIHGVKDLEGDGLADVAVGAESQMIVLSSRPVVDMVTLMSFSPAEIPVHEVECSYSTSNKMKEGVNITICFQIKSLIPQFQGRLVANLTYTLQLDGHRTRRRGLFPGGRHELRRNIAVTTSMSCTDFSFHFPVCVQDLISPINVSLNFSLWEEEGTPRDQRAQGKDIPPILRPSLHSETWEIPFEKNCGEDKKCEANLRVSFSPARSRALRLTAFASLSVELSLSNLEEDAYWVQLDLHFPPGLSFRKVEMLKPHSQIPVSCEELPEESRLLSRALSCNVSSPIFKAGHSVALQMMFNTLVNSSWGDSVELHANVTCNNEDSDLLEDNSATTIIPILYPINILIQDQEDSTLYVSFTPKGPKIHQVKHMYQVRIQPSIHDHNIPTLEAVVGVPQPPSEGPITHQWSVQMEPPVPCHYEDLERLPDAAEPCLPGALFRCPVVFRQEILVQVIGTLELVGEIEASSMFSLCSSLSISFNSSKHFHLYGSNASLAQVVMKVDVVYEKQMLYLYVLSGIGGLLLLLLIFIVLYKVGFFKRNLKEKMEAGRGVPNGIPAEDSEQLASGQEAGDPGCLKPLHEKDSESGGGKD
Chain of LFA-1 (Homo sapiens, UniProt P20701) (P05107 23-769 partner): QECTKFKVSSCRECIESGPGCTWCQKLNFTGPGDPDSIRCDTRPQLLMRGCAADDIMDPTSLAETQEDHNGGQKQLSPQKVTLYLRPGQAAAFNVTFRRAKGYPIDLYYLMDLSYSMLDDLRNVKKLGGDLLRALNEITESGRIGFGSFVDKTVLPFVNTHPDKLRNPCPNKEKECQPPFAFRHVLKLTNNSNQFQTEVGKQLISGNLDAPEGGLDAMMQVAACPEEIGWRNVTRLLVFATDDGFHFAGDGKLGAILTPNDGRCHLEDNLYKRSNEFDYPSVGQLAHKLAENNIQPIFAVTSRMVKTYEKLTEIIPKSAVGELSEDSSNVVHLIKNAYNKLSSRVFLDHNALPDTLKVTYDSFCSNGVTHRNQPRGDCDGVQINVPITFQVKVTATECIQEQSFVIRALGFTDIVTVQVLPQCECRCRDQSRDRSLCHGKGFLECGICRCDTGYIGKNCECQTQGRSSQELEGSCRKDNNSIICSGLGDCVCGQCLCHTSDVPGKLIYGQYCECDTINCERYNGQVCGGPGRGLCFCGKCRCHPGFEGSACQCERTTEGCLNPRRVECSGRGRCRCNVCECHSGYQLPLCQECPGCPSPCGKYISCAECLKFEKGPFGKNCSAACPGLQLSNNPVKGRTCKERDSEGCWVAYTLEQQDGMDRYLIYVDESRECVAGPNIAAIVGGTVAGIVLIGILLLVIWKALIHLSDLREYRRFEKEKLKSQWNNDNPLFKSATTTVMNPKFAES

Regarding `O=C(O)CN(CCN(CC(=O)O)CC(=O)O)CC(=O)O` [EDTA], the “effect on ICAM-2 induced p44/42 MAPK phosphorylation” value with p44/42 MAPK is reported as “diminished”.
For the compound `Cc1cc(O)c2c(c1)C(=O)c1cc(O)cc(O)c1C2=O` [Emodin], in the test on p44/42 MAPK, the “effect on ICAM-2 induced p44/42 MAPK phosphorylation” value is “no effect”.
In the case of `O=S(=O)(NCCNC/C=C/c1ccc(Br)cc1)c1cccc2cnccc12` [H-89], in the test on NIH3T3, the “effect on ICAM-2 anti-apoptotic effect, other kinase inhibitors” value is recorded as “not abrogated”.
In the case of `CCCCCCCCCCCCCC(=O)O[C@@H]1[C@@H](C)[C@@]2(O)[C@@H](C=C(CO)C[C@]3(O)C(=O)C(C)=C[C@@H]23)[C@@H]2C(C)(C)[C@]12OC(C)=O` [PMA, phorbol myristelated acetate], the “LFA-1 activation (mAb24 binding)” value with LFA-1 [1] is given as “induction”.
As for `C[S+]([O-])c1ccc(-c2nc(-c3ccncc3)c(-c3ccc(F)cc3)[nH]2)cc1` (stereo not drawn) [SB 203580], the “effect on ICAM-2 anti-apoptotic effect, other kinase inhibitors” value with NIH3T3 is given as “not abrogated”.
On the same count and under the same terms, in the case of `N#CC(=C(/N)Sc1ccccc1N)/C(C#N)=C(\N)Sc1ccccc1N` [U0126] it was “not abrogated”.
With `COC(=O)Nc1nc2cc(C(=O)c3cccs3)ccc2[nH]1` [nocodazole], the “LFA-1 activation (mAb24 binding)” value in the test on LFA-1 [1] is on record as “full activation of LFA-1”. The “effect on ICAM-2 induced p44/42 MAPK phosphorylation” value in the test with p44/42 MAPK is “diminished”.
Turning to `CN[C@@H]1C[C@H]2O[C@@](C)([C@@H]1OC)n1c3ccccc3c3c4c(c5c6ccccc6n2c5c31)C(=O)NC4` [staurosporine], the “sICAM-2 induced Pyk2 phosphorylation” value in the test on Pyk2 is “abrogated”. In the test on NIH3T3 (PKC isozyme inhibitors, system not specified), the “ICAM-2 induced survival signal” value is given as “did not abrogate”.
As for `CC(=O)O[C@H]1C(=O)[C@@]2(C)[C@H]([C@H](OC(=O)c3ccccc3)[C@]3(O)C[C@H](OC(=O)[C@H](O)[C@@H](NC(=O)c4ccccc4)c4ccccc4)C(C)=C1C3(C)C)[C@]1(OC(C)=O)CO[C@@H]1C[C@@H]2O` [taxol], the “LFA-1 activation (mAb24 binding)” value in the test with LFA-1 [1] was “full activation of LFA-1”. Also, in the test with p44/42 MAPK, the “effect on ICAM-2 induced p44/42 MAPK phosphorylation” value is “diminished”.
Turning to “P1: synthesized peptide of ICAM-2's first Ig domain (P1, amino acids 21-42) (GSDEKVFEVHVRPKKLAVEPKG; UniProt P13598 21-42, looked up, fragment)”, in the test with LFA-1 [2] (bulk cellular adhesion assay), the “concentration inducing LFA-1 mediated adhesion” value is 62 µM. Moreover, in the test with LFA-1 [2], the calcium influx entry was “did not induce calcium influx” and the “induction of the active conformation of LFA-1” value is reported as “did not induce the active conformation of LFA-1”.
